Reference: ChEMBL document CHEMBL1201862, “PubChem BioAssay data set” (2004)
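Five concentrations, 48 hours, 96-well plates. GI50: concentration for 50% inhibition of growth.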 Activity calls are given as the source filed them. Rule as the data show it: active = GI50 up to about 1.1 µM and inactive = higher.

Tests used:
Test in all cases: DTP human tumour cell line panel, 48 h
[1] = test system: 786-0
[2] = test system: A498
[3] = test system: A549
[4] = test system: ACHN
[5] = test system: BT-549
[6] = test system: CAKI-1
[7] = test system: CCRF-CEM
[8] = test system: COLO 205
[9] = test system: DU-145
[10] = test system: EKVX
[11] = test system: HCC 2998
[12] = test system: HCT-116
[13] = test system: HCT-15
[14] = test system: HL-60
[15] = test system: HOP-62
[16] = test system: HOP-92
[17] = test system: HT-29
[18] = test system: Hs-578T
[19] = test system: IGROV-1
[20] = test system: K562
[21] = test system: KM12
[22] = test system: LOX IMVI
[23] = test system: M14
[24] = test system: MCF7
[25] = test system: MDA-MB-231
[26] = test system: MDA-MB-435
[27] = test system: MDA-N
[28] = test system: MOLT-4
[29] = test system: Malme-3M
[30] = test system: NCI-H226
[31] = test system: NCI-H23
[32] = test system: NCI-H460
[33] = test system: NCI-H522
[34] = test system: NCI/ADR-RES
[35] = test system: OVCAR-3
[36] = test system: OVCAR-4
[37] = test system: OVCAR-5
[38] = test system: OVCAR-8
[39] = test system: PC-3
[40] = test system: RPMI-8226
[41] = test system: RXF 393
[42] = test system: SF-268
[43] = test system: SF-295
[44] = test system: SF-539
[45] = test system: SK-MEL-28
[46] = test system: SK-MEL-5
[47] = test system: SK-OV-3
[48] = test system: SN12C
[49] = test system: SNB-19
[50] = test system: SNB-75
[51] = test system: SR
[52] = test system: SW-620
[53] = test system: T47D
[54] = test system: TK-10
[55] = test system: U-251
[56] = test system: UACC-257
[57] = test system: UACC-62
[58] = test system: UO-31
[59] = test system: SK-MEL-2

For `COc1ccc2nc3cc(Cl)ccc3c(NCCNCCCNC(=O)c3cc(-c4ccccc4)nc4ccccc34)c2c1`, the GI50 [1] was > 100 µM (inactive), the GI50 [2] was > 100 µM (inactive) and the GI50 [3] was > 100 µM (inactive). The GI50 [4] was > 100 µM (inactive), the GI50 [5] was > 100 µM (inactive) and the GI50 [6] was > 100 µM (inactive). For the same compound, the GI50 [7] was > 100 µM (inactive), the GI50 [8] was > 100 µM (inactive) and the GI50 [9] was > 100 µM (inactive). The GI50 [10] was > 100 µM (inactive), the GI50 [11] was > 100 µM (inactive) and the GI50 [12] was > 100 µM (inactive). For the same compound, the GI50 [13] was greater than 100 µM, the GI50 [14] was 31.3 µM (inactive) and the GI50 [15] was > 100 µM (inactive). The GI50 [16] was > 100 µM (inactive), the GI50 [17] was 22.6 µM (inactive) and the GI50 [18] was > 100 µM (inactive). For the same compound, the GI50 [19] was > 100 µM (inactive), the GI50 [20] was 70.8 µM (inactive) and the GI50 [21] was 70.8 µM (inactive). The GI50 [22] was 82.6 µM (inactive), the GI50 [23] was > 100 µM (inactive) and the GI50 [24] was > 100 µM (inactive). For the same compound, the GI50 [25] was > 100 µM (inactive), the GI50 [26] was 30.1 µM (inactive) and the GI50 [27] was 28.6 µM (inactive). For the same compound, the GI50 [28] was > 100 µM (inactive), the GI50 [29] was 97.5 µM (inactive) and the GI50 [30] was > 100 µM (inactive). The GI50 [31] was > 100 µM (inactive), the GI50 [32] was > 100 µM (inactive) and the GI50 [33] was > 100 µM (inactive). For the same compound, the GI50 [34] was > 100 µM (inactive), the GI50 [35] was 54.7 µM (inactive) and the GI50 [36] was > 100 µM (inactive). The GI50 [37] was > 100 µM (inactive), the GI50 [38] was > 100 µM (inactive) and the GI50 [39] was 56.6 µM (inactive). For the same compound, the GI50 [40] was > 100 µM (inactive), the GI50 [41] was > 100 µM (inactive) and the GI50 [42] was > 100 µM (inactive). The GI50 [43] was > 100 µM (inactive), the GI50 [44] was > 100 µM (inactive) and the GI50 [45] was > 100 µM (inactive). The GI50 [46] was 67 µM (inactive), the GI50 [47] was > 100 µM (inactive) and the GI50 [48] was > 100 µM (inactive). For the same compound, the GI50 [49] was > 100 µM (inactive), the GI50 [50] was > 100 µM (inactive) and the GI50 [51] was 38.3 µM (inactive). The GI50 [52] was > 100 µM (inactive), the GI50 [53] was > 100 µM (inactive) and the GI50 [54] was > 100 µM (inactive). For the same compound, the GI50 [55] was > 100 µM (inactive), the GI50 [56] was > 100 µM (inactive) and the GI50 [57] was > 100 µM (inactive). For the same compound, the GI50 [58] was > 100 µM (inactive).
`O=P1(N(CCCl)CCCl)Oc2ccc(Cl)cc2C(C(Cl)(Cl)Cl)c2cc(Cl)ccc2O1` (stereo unspecified) was tested, and the GI50 [1] was 12.4 µM (inactive), the GI50 [2] was 24.9 µM (inactive) and the GI50 [3] was 5.4 µM (inactive). The GI50 [4] was 15.5 µM (inactive), the GI50 [5] was 29.8 µM (inactive) and the GI50 [6] was 16.5 µM (inactive). For the same compound, the GI50 [7] was 5.37 µM (inactive), the GI50 [8] was 12.9 µM (inactive) and the GI50 [9] was 29.1 µM (inactive). The GI50 [10] was 18.6 µM (inactive), the GI50 [11] was 10.9 µM (inactive) and the GI50 [12] was 4.55 µM (inactive). For the same compound, the GI50 [13] was 9.57 µM, the GI50 [14] was 4.26 µM (inactive) and the GI50 [15] was 11.8 µM (inactive). For the same compound, the GI50 [16] was 3.9 µM (inactive), the GI50 [17] was 5.48 µM (inactive) and the GI50 [18] was 13.6 µM (inactive). The GI50 [20] was 3.72 µM (inactive), the GI50 [21] was 13.1 µM (inactive) and the GI50 [22] was 15.2 µM (inactive). The GI50 [23] was 18.8 µM (inactive), the GI50 [24] was 10.4 µM (inactive) and the GI50 [25] was 18.6 µM (inactive). For the same compound, the GI50 [26] was 18.5 µM (inactive), the GI50 [27] was 16.2 µM (inactive) and the GI50 [28] was 3.24 µM (inactive). For the same compound, the GI50 [30] was 17.8 µM (inactive), the GI50 [31] was 12.8 µM (inactive) and the GI50 [32] was 8.28 µM (inactive). The GI50 [33] was 8.59 µM (inactive), the GI50 [34] was 14.8 µM (inactive) and the GI50 [35] was 11.4 µM (inactive). For the same compound, the GI50 [36] was 20.7 µM (inactive), the GI50 [37] was 32.8 µM (inactive) and the GI50 [38] was 25.5 µM (inactive). For the same compound, the GI50 [39] was 4.38 µM (inactive), the GI50 [40] was 3.77 µM (inactive) and the GI50 [41] was 12.7 µM (inactive). The GI50 [42] was 28.2 µM (inactive), the GI50 [43] was 3.68 µM (inactive) and the GI50 [44] was 14.8 µM (inactive). For the same compound, the GI50 [45] was 35.2 µM (inactive), the GI50 [59] was 18.5 µM (inactive) and the GI50 [46] was 11.4 µM (inactive). The GI50 [47] was 22.5 µM (inactive), the GI50 [48] was 16.6 µM (inactive) and the GI50 [50] was 10.9 µM (inactive). The GI50 [51] was 3.94 µM (inactive), the GI50 [52] was 11.2 µM (inactive) and the GI50 [53] was 20 µM (inactive). For the same compound, the GI50 [54] was 26.2 µM (inactive), the GI50 [55] was 13.7 µM (inactive) and the GI50 [56] was 18 µM (inactive). The GI50 [57] was 12.6 µM (inactive) and the GI50 [58] was 10.9 µM (inactive).
`COc1ccc2c(-c3ccc(O)cc3)c(Oc3ccc(Cl)cc3)c(=O)oc2c1` was tested, and the GI50 [1] was 7.85 µM (inactive), the GI50 [2] was 6.79 µM (inactive) and the GI50 [3] was 4.7 µM (inactive). The GI50 [4] was 8.11 µM (inactive), the GI50 [5] was 8.75 µM (inactive) and the GI50 [6] was 2.81 µM (inactive). The GI50 [7] was 6.28 µM (inactive), the GI50 [8] was 6.08 µM (inactive) and the GI50 [9] was 4.2 µM (inactive). For the same compound, the GI50 [10] was 3.14 µM (inactive), the GI50 [11] was 10.8 µM (inactive) and the GI50 [12] was 6.46 µM (inactive). For the same compound, the GI50 [13] was 4.66 µM, the GI50 [15] was 12.9 µM (inactive) and the GI50 [16] was 7.87 µM (inactive). For the same compound, the GI50 [18] was 5.62 µM (inactive), the GI50 [19] was 3.03 µM (inactive) and the GI50 [20] was 7.21 µM (inactive). For the same compound, the GI50 [21] was 5.75 µM (inactive), the GI50 [22] was 11.1 µM (inactive) and the GI50 [23] was 6.07 µM (inactive). For the same compound, the GI50 [24] was 3.63 µM (inactive), the GI50 [25] was 5.13 µM (inactive) and the GI50 [26] was 7.43 µM (inactive). The GI50 [27] was 6.34 µM (inactive), the GI50 [28] was 3.72 µM (inactive) and the GI50 [29] was 4.76 µM (inactive). The GI50 [30] was > 20.6 µM (inactive), the GI50 [31] was 2.79 µM (inactive) and the GI50 [32] was 5.2 µM (inactive). For the same compound, the GI50 [33] was 2.55 µM (inactive), the GI50 [34] was > 19.8 µM (inactive) and the GI50 [35] was 3.57 µM (inactive). The GI50 [36] was 5.77 µM (inactive), the GI50 [37] was 4.89 µM (inactive) and the GI50 [38] was > 34 µM (inactive). For the same compound, the GI50 [39] was 7.69 µM (inactive), the GI50 [40] was 3.99 µM (inactive) and the GI50 [41] was 8.34 µM (inactive). The GI50 [42] was 8.07 µM (inactive), the GI50 [43] was 6.43 µM (inactive) and the GI50 [44] was 8.26 µM (inactive). For the same compound, the GI50 [45] was 7.71 µM (inactive), the GI50 [59] was 4.69 µM (inactive) and the GI50 [46] was 3.48 µM (inactive). For the same compound, the GI50 [47] was 12 µM (inactive), the GI50 [48] was 4.6 µM (inactive) and the GI50 [49] was 3.89 µM (inactive). For the same compound, the GI50 [50] was 13.2 µM (inactive), the GI50 [51] was 2.94 µM (inactive) and the GI50 [52] was 5.35 µM (inactive). The GI50 [53] was 5.26 µM (inactive), the GI50 [54] was 5.48 µM (inactive) and the GI50 [55] was 6.15 µM (inactive). The GI50 [56] was 8.95 µM (inactive), the GI50 [57] was 4.98 µM (inactive) and the GI50 [58] was 1.14 µM (inactive).
